# US5589506A, “Stilbene derivative and stilbene analog derivative, and use thereof” (Morinaga Milk Industry Co., Ltd., priority 1993, dated 1996)
# Like-named read-outs stand apart in the source and are kept apart here.
# Columns and labels:
# 5-lipoxygenase = molecular target: T1, 5-lipoxygenase (Rattus norvegicus, UniProt P12527); assay: 5-lipoxygenase inhibition assay (rat basophilic leukemia cell RBL-1 enzyme solution); format: biochemical
# T1 construct: Cultured cells were collected and washed twice; host or cells: RBL-1 rat basophilic leukemia cells (sonicate, 10,000 x g supernatant)
# T1 sequence (P12527 1-673): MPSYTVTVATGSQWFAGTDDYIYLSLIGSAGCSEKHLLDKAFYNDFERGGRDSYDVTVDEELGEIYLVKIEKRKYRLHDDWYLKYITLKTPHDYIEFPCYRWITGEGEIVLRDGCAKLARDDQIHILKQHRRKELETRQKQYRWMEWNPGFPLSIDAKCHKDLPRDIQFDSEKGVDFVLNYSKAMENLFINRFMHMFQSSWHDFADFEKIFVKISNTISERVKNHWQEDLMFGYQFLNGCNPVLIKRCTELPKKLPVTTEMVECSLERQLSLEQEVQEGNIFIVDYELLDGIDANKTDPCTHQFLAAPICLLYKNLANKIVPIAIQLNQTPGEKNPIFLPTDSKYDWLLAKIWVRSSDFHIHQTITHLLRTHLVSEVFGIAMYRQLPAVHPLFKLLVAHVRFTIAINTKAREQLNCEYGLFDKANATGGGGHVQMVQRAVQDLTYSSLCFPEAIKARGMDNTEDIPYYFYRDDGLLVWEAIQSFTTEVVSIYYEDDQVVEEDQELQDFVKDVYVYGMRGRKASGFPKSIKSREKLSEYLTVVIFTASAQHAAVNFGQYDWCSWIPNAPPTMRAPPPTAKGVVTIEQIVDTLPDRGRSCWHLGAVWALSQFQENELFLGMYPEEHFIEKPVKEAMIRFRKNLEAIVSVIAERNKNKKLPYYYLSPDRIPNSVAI
# Protocol: The test was carried out to examine the selectivity toward 12-lipoxgenase of the compounds of the first embodiment in the present invention.
# i) Preparation of 5-lipoxgenase enzyme solution
# Rat basophilic leukemia cells (RBL-1, ATCC CRL1378) were cultured in Dulbecco modified Eagle's medium containing 10% new-born bovine serum.
# Cultured cells were collected and washed twice with a 50 mM Tris-buffered saline (containing 154 mM sodium chloride, pH: 7.4, hereinafter described as TBS). The cell suspension (4×10^7 cells/ml) was then sonicated and centrifuged at 10,000×g for 10 minutes.
# The resultant supernatant was used to prepare an assay solution.
# i) Procedure for 5-lipoxgenase inhibition assay
# To an aliquot (15 μl) of the enzyme solution (40 mU/ml equivalent) was added 185 μl of TBS, 50 μl of a 2 mM adenosine triphosphate in TBS, 50 μl of a 12 mM calcium chloride in TBS, 1 μl of a 3 mM indomethacin in ethanol solution, 1 μl of an aqueous 300 mM reduced glutathione solution, and 3 μl of varied concentrated test compounds solution in ethanol. The resultant mixture was incubated at 37° C. for 5 minutes. Subsequently, 3 μl of a 2.5 mM arachidonic acid solution in ethanol was added to incubate the mixture for 2 minutes at 37° C. The reaction was ceased by the addition of 600 μl of methanol After being centrifuged at 10,000×g for 5 minutes, 5-hydroxyeicosatetraenoic acid recovered in the supernatant was separated with a reverse phase high-performance liquid chromatography equipped with a C-18 column and measured the absorption of diene at 234 nm to quantify the activity of the enzyme. […]
# The enzyme activities of the compounds of the present invention prepared according to the same procedure as in Examples 54-58 to be described later and baicalein as sample substances at varied concentrations were measured according to the above-mentioned method, and mole concentrations showing 50% 12-lipoxgenase and 5-lipoxgenase inhibition ratios (hereinafter may be described as IC50 values) were obtained from the measured values of the sample substances.
# 12-lipoxygenase = molecular target: T2, 12-lipoxygenase (Rattus norvegicus, UniProt F1LQ70); assay: 12-lipoxygenase inhibition assay (rat platelet enzyme solution); format: biochemical, Sprague Dawley male rat; details: for inhibition at 1 µM: 10^-6 (mole concentration); for inhibition at 0.1 µM: 10^-7 (mole concentration)
# T2 construct: The pelleted platelets were rinsed twice with a washing buffer; from tissue; host or cells: platelets of Sprague Dawley male rat (sonicate, 100,000 x g supernatant)
# T2 sequence (F1LQ70 1-663): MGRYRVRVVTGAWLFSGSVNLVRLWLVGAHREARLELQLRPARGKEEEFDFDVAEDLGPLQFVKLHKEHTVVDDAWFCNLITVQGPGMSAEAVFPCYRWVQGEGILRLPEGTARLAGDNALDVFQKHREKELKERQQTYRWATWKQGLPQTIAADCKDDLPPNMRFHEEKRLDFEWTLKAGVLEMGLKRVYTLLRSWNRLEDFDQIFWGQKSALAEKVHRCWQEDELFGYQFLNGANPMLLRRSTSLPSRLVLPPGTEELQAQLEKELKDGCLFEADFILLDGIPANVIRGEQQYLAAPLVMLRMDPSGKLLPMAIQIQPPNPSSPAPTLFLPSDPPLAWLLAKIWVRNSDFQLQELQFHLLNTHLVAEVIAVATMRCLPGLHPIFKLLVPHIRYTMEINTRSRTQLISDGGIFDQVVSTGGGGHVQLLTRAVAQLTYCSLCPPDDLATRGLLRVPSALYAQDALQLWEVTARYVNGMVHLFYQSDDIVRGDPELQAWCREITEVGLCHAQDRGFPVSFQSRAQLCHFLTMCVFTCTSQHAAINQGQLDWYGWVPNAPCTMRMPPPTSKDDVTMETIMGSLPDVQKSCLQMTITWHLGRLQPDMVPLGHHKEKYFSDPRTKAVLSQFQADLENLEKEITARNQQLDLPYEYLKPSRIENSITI
# Protocol: The test was performed to examine inhibitory effect of various compounds on the 12-lipoxyganase activity.
# 1) Preparation of Enzyme Solution
# A Sprague Dawley male rat was anesthetized with ether and bled from abdominal aorta using a syringe filled with about one-tenth volume of 3.8% sodium citrate. Blood was centrifuged at 180×g for 15 minutes at room temperature to pellet sanguineous platelet blood plasma. The resultant supernatant was again centrifuged at 1800×g for 10 minutes at 4° C. The pelleted platelets were rinsed twice with a washing buffer (50 mM Tris-hydrochloric acid buffer containing 154 mM sodium chloride and 2 mM EDTA, pH: 7.4). The platelets were then suspended in one-twentieth volume of a resuspension buffer (50 mM Tris-hydrochloric acid buffer containing 154 mM sodium chloride and 5.5 mM glucose, pH: 7.4). The platelets were then sonicated at 4° C. and centrifuged at 100,000×g for 30 minutes to obtain a supernatant as a 12-lipoxgenaseenzyme solution.
# 2) Procedure for 12-lipoxgenase inhibition assay
# The enzyme solution described above was diluted with the resuspension buffer above mentioned to prepare an assay solution so as to include about 2 mU/ml of 12-lipoxygenase. […] The resultant mixture was incubated at 37° C. for 5 minutes. Subsequently, 3 μl of a 2.5 mM arachidonic acid solution in ethanol was added to incubate with for another 5 minutes at 37° C., then the reaction was ceased by the addition of 600 μl of methanol. After being centrifuged at 10,000×g for 5 minutes, 12-hydroxyeicosatetraenoic acid recovered in the supernatant was separated with a reverse phase high-performance liquid chromatography equipped with a […] the activity of 12 lipoxygenase.
# The enzyme solution was prepared according to the same manner as in Test Example 1.
# It was prepared according to the same procedure as in Test Example 1.
# Measurement was performed according to the same procedure as in Test Example 1.
# The measurement was performed according to the same procedure as in Test Example 1.
# [1] = Table 3, read-out: IC50 values of 5-lipoxygenase (mole)
# [2] = Table 3, read-out: IC50 values of 12-lipoxygenase (mole)
# [3] = Table 12, deacylated compounds, read-out: 12-Lipoxygenase inhibitory effect of deacylated compounds (IC50 values)
# [4] = Table 23, read-out: 5-Lipoxygenase inhibitory effect IC50
# [5] = Table 23, read-out: 12-Lipoxygenase inhibitory effect IC50
# [6] = Table 2, read-out: 12-Lipoxygenase IC50 values
# [7] = 10^-5 (mole concentration), 10 µM
# [8] = 10^-5 (mole concentration), read-out: 12-Lipoxygenase inhibition ratio (%)
# [9] = read-out: 12-Lipoxygenase inhibition ratio (%)
compound,measurement,setting,value
"N#CC(=Cc1ccc(O)c(O)c1)c1ccc([N+](=O)[O-])cc1 [Ex. 17, α-cyano-4-nitro-3',4'-dihydroxystilbene]",IC50,5-lipoxygenase; [1],130 nM
same,IC50,12-lipoxygenase; [2],8.8 nM
same,IC50,12-lipoxygenase; [3],8.8 nM
N#CC(=Cc1cccc2ccccc12)c1ccc(O)c(O)c1 [Formula 25c],IC50,5-lipoxygenase; [4],36 nM
same,IC50,12-lipoxygenase; [5],5.9 nM
N#CC(=Cc1ccc(O)c(O)c1)c1ccc(Br)s1 [Ex. 14],IC50,5-lipoxygenase; [1],26 nM
same,IC50,12-lipoxygenase; [2],3.6 nM
"Oc1ccc(/C=C/c2ccccc2)cc1O [Comp. Ex. 5, reference compound]",12-lipoxygenase inhibitory effect (in words),12-lipoxygenase,remarkably poor compared with that of the compound (Example 1)
same,IC50,12-lipoxygenase; [6],1200 nM
"N#CC(=Cc1ccc(O)c(O)c1)c1ccc(O)c(O)c1 [Comp. Ex. 8, reference compound]",IC50,12-lipoxygenase; [6],300 nM
N#CC(=Cc1ccc(O)c(O)c1)c1csc2ccccc12 [Formula 22c],IC50,5-lipoxygenase; [4],56 nM
same,IC50,12-lipoxygenase; [5],8.6 nM
N#CC(=Cc1ccc(O)c(O)c1)c1ccc(C#N)cc1 [Ex. 16],IC50,5-lipoxygenase; [1],100 nM
same,IC50,12-lipoxygenase; [2],28 nM
N#CC(=Cc1ccc(O)c(O)c1)c1ccc(Br)cc1 [Ex. 4],IC50,5-lipoxygenase; [1],15 nM
same,IC50,12-lipoxygenase; [2],3.6 nM
"Cc1ccc(C=C(C#N)c2ccc(O)c(O)c2)s1 [Ex. 27, α-(5-methylthiophen-2-ylmethylidene)-3,4-dihydroxybenzeneacetonitrile]",IC50,5-lipoxygenase; [1],66 nM
same,IC50,12-lipoxygenase; [2],7.7 nM
"COc1ccc(C(C#N)=Cc2ccc(O)c(O)c2)cc1 [Formula 55b, α-cyano-4-methoxy-3',4'-dihydroxystilbene]",IC50,12-lipoxygenase; [3],6 nM
N#CC(=Cc1ccc(O)c(O)c1)c1ccccc1 [Ex. 9],IC50,5-lipoxygenase; [1],110 nM
same,IC50,12-lipoxygenase; [2],15 nM
"N#CC(=Cc1ccc(C(=O)O)cc1)c1ccc(O)c(O)c1 [Comp. Ex. 9, reference compound]",IC50,12-lipoxygenase; [6],5000 nM
"N#CC(=Cc1ccc(O)c(O)c1)c1cc(Br)cs1 [Ex. 13, α-(3,4-dihydroxybenzylidene)-4-bromothiophene-2-acetonitrile]",IC50,5-lipoxygenase; [1],36 nM
same,IC50,12-lipoxygenase; [2],3 nM
same,IC50,12-lipoxygenase; [3],3 nM
"N#CC(=Cc1ccc(O)cc1)c1ccc(Cl)cc1 [Comp. Ex. 2, reference compound]",12-Lipoxygenase inhibition ratio (%),12-lipoxygenase; [7],10%
same,inhibition at 10 µM,12-lipoxygenase; [8],< 10%
same,inhibition at 1 µM,12-lipoxygenase; [9],2%
same,inhibition at 0.1 µM,12-lipoxygenase; [9],5%
"CCOC(=O)C(=Cc1ccc(O)c(O)c1)c1ccccc1 [Comp. Ex. 6, reference compound]",12-lipoxygenase inhibitory effect (in words),12-lipoxygenase,remarkably poor compared with that of the compound (Example 1)
same,IC50,12-lipoxygenase; [6],160 nM
"N#CC(=Cc1ccc(Cl)cc1)c1ccc(O)c(O)c1 [Ex. 2, α-cyano-4'-chloro-3,4-dihydroxystilbene]",IC50,5-lipoxygenase; [1],56 nM
same,IC50,12-lipoxygenase; [2],1.8 nM
same,IC50,12-lipoxygenase; [3],1.8 nM
"N#CC(=Cc1cccc(O)c1)c1ccc(Cl)cc1 [Comp. Ex. 1, reference compound]",12-Lipoxygenase inhibition ratio (%),12-lipoxygenase; [7],7%
same,inhibition at 10 µM,12-lipoxygenase; [8],< 10%
same,inhibition at 1 µM,12-lipoxygenase; [9],1%
same,inhibition at 0.1 µM,12-lipoxygenase; [9],0%
N#CC(=Cc1ccc(O)c(O)c1)c1ccc(F)cc1 [Ex. 3],IC50,5-lipoxygenase; [1],94 nM
same,IC50,12-lipoxygenase; [2],4.8 nM
"N#CC(=Cc1ccccc1)c1ccc(O)c(O)c1 [Ex. 20, α-cyano-3,4-dihydroxystilbene]",IC50,5-lipoxygenase; [1],96 nM
same,IC50,12-lipoxygenase; [2],17 nM
"Cc1cccc(C=C(C#N)c2ccc(O)c(O)c2)c1 [Bz. 25, α-cyano-3'-methyl-3,4-dihydroxystilbene]",IC50,5-lipoxygenase; [1],44 nM
same,IC50,12-lipoxygenase; [2],7 nM
"COc1ccc(C=C(C#N)c2ccc(Cl)cc2)cc1O [Comp. Ex. 3, reference compound]",12-Lipoxygenase inhibition ratio (%),12-lipoxygenase; [7],10%
same,inhibition at 10 µM,12-lipoxygenase; [8],< 10%
same,inhibition at 1 µM,12-lipoxygenase; [9],1%
same,inhibition at 0.1 µM,12-lipoxygenase; [9],0%
"N#CC(=Cc1cccc(Cl)c1)c1ccc(O)c(O)c1 [Ex. 22, α-cyano-3'-chloro-3,4-dihydroxystilbene]",IC50,5-lipoxygenase; [1],34 nM
same,IC50,12-lipoxygenase; [2],5.1 nM
same,IC50,12-lipoxygenase; [3],5.1 nM
"N#CC(=Cc1ccc(Br)cc1)c1ccc(O)c(O)c1 [Ex. 23, α-cyano-4'-bromo-3,4-dihydroxystilbene]",IC50,5-lipoxygenase; [1],70 nM
same,IC50,12-lipoxygenase; [2],2.2 nM
same,IC50,12-lipoxygenase; [3],3.6 nM
N#CC(=Cc1ccc(O)c(O)c1)c1ccc2ccccc2c1 [Formula 23c],IC50,5-lipoxygenase; [4],30 nM
same,IC50,12-lipoxygenase; [5],10 nM
"N#CC(=Cc1ccc(O)c(O)c1)c1ccc(Cl)cc1 [Ex. 1, α-cyano-4-chloro-3',4'-dihydroxystilbene]",IC50,5-lipoxygenase; [1],38 nM
same,inhibition at 10 µM,12-lipoxygenase; [8],97%
same,inhibition at 1 µM,12-lipoxygenase; [9],97%
same,inhibition at 0.1 µM,12-lipoxygenase; [9],98%
same,12-Lipoxygenase inhibition ratio (%),"12-lipoxygenase; 10^-8 (mole concentration), 0.01 µM",73%
same,12-Lipoxygenase inhibition ratio (%),"12-lipoxygenase; 10^-8 (mole concentration), 0.01 µM, listed as Example 1, 0.01 µM",73%
same,inhibition at 0.001 µM,"12-lipoxygenase; 10^-9 (mole concentration), read-out: 12-Lipoxygenase inhibition ratio (%)",1%
same,IC50,12-lipoxygenase; [6],4.2 nM
same,IC50,12-lipoxygenase; [2],4.2 nM
same,IC50,12-lipoxygenase; [3],4.2 nM
"N#CC(=Cc1ccc(O)c(O)c1)c1ccc(O)cc1 [Comp. Ex. 7, reference compound]",IC50,12-lipoxygenase; [6],230 nM
"COc1cc(C=C(C#N)c2ccc(Cl)cc2)ccc1O [Comp. Ex. 4, reference compound]",12-Lipoxygenase inhibition ratio (%),12-lipoxygenase; [7],2%
same,inhibition at 1 µM,12-lipoxygenase; [9],0%
same,inhibition at 0.1 µM,12-lipoxygenase; [9],0%
